Results on one compound are retold here after patent US20020147177A1, “Formulation of artemisinin” (priority 2001, published 2002).

Each structure is given as a SMILES string. Converted amounts (≈) assume the structure as drawn.

A short description of this data set: Solubility in water, shaken five days, HPLC. The data set is classed as physicochemical. The conditions noted are these: thermodynamic from solid, room temperature (25° C.). The method, then: […] of each of the complexes and artemisinin crystals were separately shaken in 25 ml of water maintained at room temperature (25° C.) for five days. The solution was then filtered through a 0.2 μu membrane filter and suitably diluted before analysis. An analysis of the drug concentration in the solution was determined by high performance liquid chromatography using a method reported by Chan et al (1997).

`C[C@@H]1CC[C@H]2[C@@H](C)C(=O)O[C@@H]3O[C@@]4(C)CC[C@@H]1[C@]32OO4` [artemisinin crystals, artemisinin] returned a solubility at 5 days of 55.7 ± 1.75 µg/mL (≈ 197 µM).

The solubility is the concentration that dissolves in the medium under given conditions. Lower therefore signals little dissolved substance.
